Results reported in US8394963B2, “Process for the preparation of esomeprazole magnesium dihydrate” (Cipla Limited, priority 2007, dated 2013).

Test: Solubility checked using 0.1 g of the sample at 25-30° C.
Format: physicochemical
Conditions: for Solubility (volume of solvent): 0.1 g of the sample at 25-30° C.
Description: Polymorphs of a compound differ in physical properties such as crystal structure, dissolution and particle size.

Structure (SMILES): COc1ccc2[nH]c(SCc3ncc(C)c(OC)c3C)nc2c1 [Form I, 5-methoxy-2-[[(4-methoxy-3,5-dimethyl-2-pyridinyl)-methyl]thio]-1H-benzimidazole, reference compound]
- Solubility (volume of solvent) (Acetone): 2.0 mL
- Solubility (volume of solvent) (Ethyl acetate): 4.6 mL
- Solubility (volume of solvent) (Isopropyl acetate): 10.0 mL
- Solubility (volume of solvent) (Toluene): 8.4 mL

Structure (SMILES): COc1ccc2[nH]c(SCc3ncc(C)c(OC)c3C)nc2c1 [Form II, 5-methoxy-2-[[(4-methoxy-3,5-dimethyl-2-pyridinyl)-methyl]thio]-1H-benzimidazole]
- Solubility (volume of solvent) (Acetone): 4.6 mL
- Solubility (volume of solvent) (Ethyl acetate): 12.0 mL
- Solubility, comparison of the polymorphic forms (Form II compared with Form I of thio intermediate (compound III)): less soluble than Form I
- Solubility (volume of solvent) (Isopropyl acetate): 13.0 mL
- Solubility (volume of solvent) (Toluene): 15.0 mL
